Target: T1, human Cot/Tpl2 kinase (Homo sapiens, UniProt P41279)
T1 construct: human Cot/Tpl2 kinase construct encoding residues 30-398; 6His (N); made in house; host or cells: Sf9 insect cells, baculovirus system (BD Biosciences)
Assay: Tpl2/Cot kinase assay: GST-MEK1 phosphorylation detected by ELISA (DELFIA Eu)
Format: biochemical
Settings: Tpl2/Cot kinase, GST-MEK1 substrate, 50 uM ATP, 1 h at 30° C.; Table 2
Summary of the method: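 His-tagged human Tpl2 from Sf9 cells, Ni-affinity and size-exclusion purified (monomer). 0.4 nM Tpl2 with 35 nM GST-MEK1, 50 uM ATP, MOPS pH 7.2, 1% DMSO, 1 h at 30° C; EDTA stop. MEK1 Ser217/221 phosphorylation detected by anti-phospho-MEK1 and Eu-labelled secondary ELISA; IC50 fitted.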

T1 sequence (P41279 30-398): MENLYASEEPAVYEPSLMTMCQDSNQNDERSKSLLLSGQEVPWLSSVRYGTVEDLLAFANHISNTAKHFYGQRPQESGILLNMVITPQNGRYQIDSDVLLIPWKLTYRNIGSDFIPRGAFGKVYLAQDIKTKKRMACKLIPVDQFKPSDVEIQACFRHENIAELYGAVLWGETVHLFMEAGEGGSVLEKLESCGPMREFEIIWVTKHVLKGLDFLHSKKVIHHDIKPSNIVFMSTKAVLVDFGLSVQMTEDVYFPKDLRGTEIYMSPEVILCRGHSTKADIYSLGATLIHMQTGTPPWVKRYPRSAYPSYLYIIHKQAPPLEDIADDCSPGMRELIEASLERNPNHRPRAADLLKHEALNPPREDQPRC

| SMILES | IC50 |
| --- | --- |
| N#Cc1cnc2c(Cl)cc(NCc3cn(C4CC5CCC(C4)N5CC4CC4)nn3)cc2c1Nc1ccc(F)c(Cl)c1 (stereo not drawn) [Example 1057] | 11 nM |
| N#Cc1cnc2c(Cl)cc(NCc3cn(C4CC5CCC(C4)N5C=O)nn3)cc2c1Nc1ccc(F)c(Cl)c1 (stereo not drawn) [Example 1059] | 14 nM |
| CC(C)N1CCC(c2cncc(CNc3cc(Cl)c4ncc(C#N)c(Nc5ccc(F)c(Cl)c5)c4c3)c2)CC1 [Example 1061] | 600 nM |

Second part, the compound after the results:

| IC50 | SMILES |
| --- | --- |
| 70 nM | CC(C)CN1C2CCC1CC(n1cc(CNc3cc(Cl)c4ncc(C#N)c(Nc5ccc(F)c(Cl)c5)c4c3)nn1)C2 (stereo not drawn) [Example 1058] |
| 45 nM | CC1(O)CCC(n2cc(CNc3cc(Cl)c4ncc(C#N)c(Nc5ccc(F)c(Cl)c5)c4c3)nn2)CC1 (stereo not drawn) [Example 1060] |

Target: Tpl2 (Homo sapiens, UniProt P41279)
Assay: not given
Settings: background statement; cited from earlier work

Sequence of Tpl2 (P41279 whole entry): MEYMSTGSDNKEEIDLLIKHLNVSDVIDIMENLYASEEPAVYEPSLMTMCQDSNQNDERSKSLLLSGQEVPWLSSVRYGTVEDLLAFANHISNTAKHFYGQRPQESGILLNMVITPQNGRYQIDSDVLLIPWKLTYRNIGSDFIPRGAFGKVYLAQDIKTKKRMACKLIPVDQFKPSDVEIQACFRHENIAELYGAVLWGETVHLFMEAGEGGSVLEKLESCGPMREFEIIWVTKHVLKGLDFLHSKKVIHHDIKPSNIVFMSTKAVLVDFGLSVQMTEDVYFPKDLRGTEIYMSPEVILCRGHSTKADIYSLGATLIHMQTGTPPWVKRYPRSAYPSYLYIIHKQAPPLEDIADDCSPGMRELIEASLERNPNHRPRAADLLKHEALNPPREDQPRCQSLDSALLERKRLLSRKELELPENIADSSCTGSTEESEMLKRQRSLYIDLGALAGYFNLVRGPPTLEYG

| SMILES | inhibition of Tpl2 |
| --- | --- |
| CN[C@@H]1C[C@H]2O[C@@](C)([C@@H]1OC)n1c3ccccc3c3c4c(c5c6ccccc6n2c5c31)C(=O)NC4 [staurosporine] | not inhibited |

From patent US20060264460A1 (Wyeth, priority 2005, published 2006)
